Test results: patent US10174065B2, “Antidiabetic enolic glucoside of phenylpyruvic acid” (ZADEC APS, priority 2010, dated 2019)

System: gene expression in liver
Assay: Quantitative real-time PCR gene expression in liver of obese, insulin resistant Wistar rats
Assay type: in vivo
Method: Three week old male rats were fed a high fat diet for 24 weeks to induce obesity and insulin resistance. Thereafter, rats were treated with 0.3 mg/kg Rx-1 daily for two weeks, and then with 3 mg/kg Rx-1 daily for seven days. Fasting glucose concentrations were measured before treatment, after two weeks treatment with 0.3 mg/kg Rx-1 and then again after seven days treatment with 3 mg/kg Rx-1. After treatment with 3 mg/kg Rx-1 rats were terminated and liver, muscle and pancreas biopsies were taken. Quantitative real-time PCR was used to measure the expression of 12 genes in liver and muscle samples, and ten genes in pancreas samples.
Rats were housed at the Primate Unit (Medical Research Council, South Africa). Rat management including feeding, glucose measurements and terminations, were done according to standard operating procedures (Diabetes Discovery Platform, Medical Research Council). Briefly, three week old rats were fed a high fat diet for 24 weeks to induce T2D. The study group consisted of thirteen rats, eight rats were treated by daily gavage with 0.3 mg/kg Rx-1 for two weeks, and then with 3 mg/kg Rx-1 for seven days. Five rats were used as controls and were treated with water only for three weeks. Rats were terminated after treatment and liver, muscle and pancreas tissue harvested and stored in RNalater (Ambion) as recommended by the manufacturer. The study was approved by the ethics committee of the Medical Research Council of South Africa.
Tissue was removed from RNAlater, weighed (80-100 mg), and placed in a 2 ml microfuge tube containing 1 ml of Trizol (Invitrogen) and a stainless steel bead (Qiagen). Tissue was homogenised in the TissueLyser (Qiagen) at 25 Hz for 6 min, centrifuged at 12,000 g for 10 min at 4° C., and the supernatant removed and incubated at room temperature for 5 min. Thereafter, 0.2 ml of chloroform (Sigma) was added, shaken vigorously for 15 sec, and then incubated at room temperature for 3 min with occasional mixing. Samples were centrifuged 12,000 g for 15 min at 4° C. and the aqueous phase was transferred to a new tube. RNA was precipitated by adding 0.5 ml isopropanol, mixed well for 30 sec, and placed at −20° C. overnight. The following day, tubes were centrifuged at 12,000 g for 20 min at 4° C. The pellet was washed with 1 ml of 75% ethanol and centrifuged at 12,000 g for 15 min at 4° C. The wash step was repeated. After the second wash, the pellet was air dried by placing tubes with their lids open (on ice) in a PCR cabinet for 2 hours. Excess liquid was removed by blotting tubes on paper towel occasionally during this incubation. The pellet was resuspended by adding 100 μl RNase-free water and incubating at 55° C. for 10 min. RNA concentrations were determined using a spectrophotometer (Nanodrop Technologies). Thereafter, RNA was purified with the RNeasy Mini Kit according to the manufacturer's instructions (Qiagen) and concentrations again determined with the Nanodrop. Genomic DNA was removed by treating RNA with Turbo DNA-free DNase (Ambion) and incubating at 37° C. for 90 min according to the manufacturer's instructions, but using 1.5× the units of DNase and incubation time recommended by the kit. In brief, 20 μg RNA was incubated with 1.5 μl (3 units) DNase, 5 μl DNase buffer, and nuclease-free water in a final reaction volume of 50 μl for 45 min at 37° C., thereafter, another 3 units of DNase was added and incubated for a further 45 min. DNase was inactivated by adding ⅕ volume (10 μl) of the DNase inactivation reagent supplied with the kit. Reactions were incubated at room temperature for 2 min, and centrifuged at 14,000 rpm for 1.5 min. The supernatant was removed and RNA concentrations were measured using the Nanodrop. The quality of the DNase-treated RNA was determined with the RNA 6000 Nano kit using the 2100 Bioanalyser Lab-on-a-Chip system as recommended by the manufacturers (Agilent technologies). […]

[1] = liver, 0.3 mg/kg two weeks then 3 mg/kg seven days
[2] = liver, not statistically significant

O=C(O)/C(=C/c1ccccc1)O[C@@H]1O[C@H](CO)[C@@H](O)[C@H](O)[C@H]1O [RX-1, 3-Phenyl-2-(3,4,5-trihydroxy-6-hydroxymethyl-tetrahydro-pyran-2-yloxy)-acrylic acid]
Pi3k expression (liver only, not significant): upregulated
Gck gene expression (liver, 0.3 mg/kg daily two weeks then 3 mg/kg daily seven days, not statistically significant): increased
Glut1 expression [1]: increased
Glut2 expression [1]: increased
IR gene expression [1]: upregulated
IRS1 mRNA levels [1]: unchanged
IRS2 gene expression [1]: increased
PPARα expression [1]: significantly upregulated
GcgR gene expression [2]: increased
SOCS1 mRNA expression [2]: increased
SOCS3 mRNA expression (liver, statistically significant): increased
